Data taken from publication PMC11755709, “Cytotoxicity and Oxidative Stress Induced by Technology-Critical Elements versus Traditional Metal Contaminants: An In Vitro Bioassay Study” (Environmental Science & Technology, 2025).
Entries after “also recorded” stand apart in the source; their conditions may differ.

Tested on: nuclear factor erythroid 2-related factor 2 (Nrf2) pathway
Type: cell-based, human
Settings: MCF7AREc32, 24 h exposure, linear regression
In the case of `[Ga]` [Ga, gallium], the “ECIR1.5 (effective concentration at an induction ratio of 1.5), Nrf2 activity” value is reported as 0.83 mg/L.
In the case of `CC(C)(C)c1cc(O)ccc1O` [tBHQ, tert-butylhydroquinone], the “ECIR1.5 (effective concentration at an induction ratio of 1.5), Nrf2 activity” value is reported as 0.27 mg/L.
In the case of `[Cd]` [Cd, cadmium], the “ECIR1.5 (effective concentration at an induction ratio of 1.5), Nrf2 activity” value is reported as 0.24 mg/L.
For `[As]` [As, arsenic, reference compound], the “ECIR1.5 (effective concentration at an induction ratio of 1.5), Nrf2 activity” value was 0.11 mg/L.

Same assay, conditions: MCF7AREc32, noncytotoxic concentrations
With `[Ga]` [Ga, gallium] the “induction of oxidative stress (Nrf2 activity exceeding a 1.5 induction ratio)” value was “found to induce oxidative stress”.
For `[Cd]` [Cd, cadmium], the “induction of oxidative stress (Nrf2 activity exceeding a 1.5 induction ratio)” value was “found to induce oxidative stress”.
For `[As]` [As, arsenic, reference compound], the “induction of oxidative stress (Nrf2 activity exceeding a 1.5 induction ratio)” value was “found to induce oxidative stress”.

Tested on: MCF7AREc32 cell line
Settings: MCF7AREc32, MTS test, 24 h exposure, 70% response relative to vehicle control
For `[Cd]` [Cd, cadmium], the “IC70, cytotoxicity” value was 9.1 µg/mL.
For `[As]` [As, arsenic, reference compound], the “IC70, cytotoxicity” value was 8.1 µg/mL.

Same assay, conditions: MCF7AREc32, MTS test, up to 10 or 100 mg/L
For `[Ge]` [Ge, germanium], the “cytotoxicity (cell viability <80% vs vehicle control)” value was “Neither Ge nor In exhibited any cytotoxicity”.
For `[Tl]` [Tl, thallium], the “cytotoxicity (cell viability <80% vs vehicle control)” value was “Cytotoxicity is shown; also recorded: Cytotoxicity for Tl was observed”.
With `[Cd]` [Cd, cadmium] the “cytotoxicity (cell viability <80% vs vehicle control)” value was “Cytotoxicity is shown; also recorded: cytotoxicity was identified”.
For `[As]` [As, arsenic, reference compound], the “cytotoxicity (cell viability <80% vs vehicle control)” value was “Cytotoxicity is shown; also recorded: cytotoxicity was identified”.

Same assay, conditions: read-out: interpolated IC50, cytotoxicity; MCF7AREc32, converted to mmol/L
`[Cd]` [Cd, cadmium] showed an IC50 of 0.087 mmol/L.

Tested on: AR-EcoScreen GR-KO-M1 cell line
Settings: AR-EcoScreen GR-KO-M1, MTS test, 24 h exposure
With `[Ga]` [Ga, gallium] the “IC70, cytotoxicity” value was 50 mg/L.
For `[Nd]` [Nd, Neodymium], the “IC70, cytotoxicity” value was 26 mg/L.
With `[Cd]` [Cd, cadmium] the “IC70, cytotoxicity” value was 2.6 mg/L.
For `[Te]` [Te, tellurium], the “IC70, cytotoxicity” value was 0.28 mg/L.

Same assay, conditions: AR-EcoScreen GR-KO-M1, MTS test, converted from mg/L
In the case of `[Ga]` [Ga, gallium], the “IC70, cytotoxicity” value is reported as 0.72 mmol/L.
For `[Nd]` [Nd, Neodymium], the “IC70, cytotoxicity” value was 0.18 mmol/L.
With `[Te]` [Te, tellurium] the “IC70, cytotoxicity” value was 2.2 × 10^–3 mmol/L.

Same assay, conditions: AR-EcoScreen GR-KO-M1, MTS test, up to 10 or 100 mg/L
With `[Ge]` [Ge, germanium] the “cytotoxicity (cell viability <80% vs vehicle control)” value was “Neither Ge nor In exhibited any cytotoxicity”.
For `[Ga]` [Ga, gallium], the “cytotoxicity (cell viability <80% vs vehicle control)” value was “Cytotoxicity is shown; also recorded: Cytotoxic effects were most clearly observed”.
In the case of `[Nd]` [Nd, Neodymium], the “cytotoxicity (cell viability <80% vs vehicle control)” value is reported as “Cytotoxicity is shown; also recorded: Cytotoxic effects were most clearly observed”.
With `[Cd]` [Cd, cadmium] the “cytotoxicity (cell viability <80% vs vehicle control)” value was “Cytotoxicity is shown; also recorded: cytotoxicity was identified”.
For `[As]` [As, arsenic, reference compound], the “cytotoxicity (cell viability <80% vs vehicle control)” value was “Cytotoxicity is shown; also recorded: cytotoxicity was identified”.
For `[Te]` [Te, tellurium], the “cytotoxicity (cell viability <80% vs vehicle control)” value was “Cytotoxicity is shown; also recorded: Cytotoxic effects were most clearly observed”.

Same assay, conditions: read-out: interpolated IC50, cytotoxicity; AR-EcoScreen, converted to mmol/L
Molecule `[Cd]` [Cd, cadmium] has an IC50 of 0.052 mmol/L.
`[As]` [As, arsenic, reference compound] showed an IC50 of 0.17 mmol/L.

Tested on: DR-EcoScreen cell line
Settings: MTS test, 24 h exposure
In the case of `[Ga]` [Ga, gallium], the “IC70, cytotoxicity” value is reported as 100 µg/mL.
For `[Nd]` [Nd, Neodymium], the “IC70, cytotoxicity” value was 31 µg/mL.
With `[As]` [As, arsenic, reference compound] the “IC70, cytotoxicity” value was 0.83 µg/mL.
With `[Te]` [Te, tellurium] the “IC70, cytotoxicity” value was 8.7 µg/mL.

Same assay, conditions: MTS test, converted from mg/L
In the case of `[Ga]` [Ga, gallium], the “IC70, cytotoxicity” value is reported as 1400 µM.
In the case of `[Nd]` [Nd, Neodymium], the “IC70, cytotoxicity” value is reported as 210 µM.
With `[Te]` [Te, tellurium] the “IC70, cytotoxicity” value was 68 µM.

Same assay, conditions: MTS test, up to 10 or 100 mg/L
With `[Ge]` [Ge, germanium] the “cytotoxicity (cell viability <80% vs vehicle control)” value was “Neither Ge nor In exhibited any cytotoxicity”.
In the case of `[Ga]` [Ga, gallium], the “cytotoxicity (cell viability <80% vs vehicle control)” value is reported as “Cytotoxicity is shown; also recorded: Cytotoxic effects were most clearly observed”.
With `[Nd]` [Nd, Neodymium] the “cytotoxicity (cell viability <80% vs vehicle control)” value was “Cytotoxicity is shown; also recorded: Cytotoxic effects were most clearly observed”.
With `[Cd]` [Cd, cadmium] the “cytotoxicity (cell viability <80% vs vehicle control)” value was “Cytotoxicity is shown; also recorded: cytotoxicity was identified”.
In the case of `[As]` [As, arsenic, reference compound], the “cytotoxicity (cell viability <80% vs vehicle control)” value is reported as “Cytotoxicity is shown; also recorded: cytotoxicity was identified”.
For `[Te]` [Te, tellurium], the “cytotoxicity (cell viability <80% vs vehicle control)” value was “Cytotoxicity is shown; also recorded: Cytotoxic effects were most clearly observed”.

Same assay, conditions: read-out: interpolated IC50, cytotoxicity, converted to mmol/L
For `[As]` [As, arsenic, reference compound], the IC50 was 0.014 mmol/L.

Tested on: VM7Luc4E2 cell line
Settings: VM7Luc4E2, ATPase test, 24 h exposure
With `[Ga]` [Ga, gallium] the “IC70, cytotoxicity” value was 52 µg/mL.
For `[Yb]` [Yb, Ytterbium], the “IC80, cytotoxicity” value was 33 µg/mL.
For `[Nd]` [Nd, Neodymium], the “IC70, cytotoxicity” value was 24 µg/mL.
For `[Tl]` [Tl, thallium], the “IC80, cytotoxicity” value was 9.0 µg/mL.
In the case of `[Gd]` [Gd, Gadolinium], the “IC80, cytotoxicity” value is reported as 3.7 µg/mL.
For `[Te]` [Te, tellurium], the “IC70, cytotoxicity” value was 1.5 µg/mL.

Same assay, conditions: VM7Luc4E2, ATPase test, converted from mg/L
With `[Ga]` [Ga, gallium] the “IC70, cytotoxicity” value was 750 µM.
With `[Nd]` [Nd, Neodymium] the “IC70, cytotoxicity” value was 170 µM.
With `[Te]` [Te, tellurium] the “IC70, cytotoxicity” value was 12 µM.

Same assay, conditions: VM7Luc4E2, ATPase test, up to 10 or 100 mg/L
For `[Ge]` [Ge, germanium], the “cytotoxicity (cell viability <80% vs vehicle control)” value was “Neither Ge nor In exhibited any cytotoxicity”.
For `[Ga]` [Ga, gallium], the “cytotoxicity (cell viability <80% vs vehicle control)” value was “Cytotoxicity is shown; also recorded: Cytotoxic effects were most clearly observed”.
With `[Yb]` [Yb, Ytterbium] the “cytotoxicity (cell viability <80% vs vehicle control)” value was “Cytotoxicity is shown; also recorded: induce cytotoxic effects”.
In the case of `[Nd]` [Nd, Neodymium], the “cytotoxicity (cell viability <80% vs vehicle control)” value is reported as “Cytotoxicity is shown; also recorded: Cytotoxic effects were most clearly observed”.
With `[Tl]` [Tl, thallium] the “cytotoxicity (cell viability <80% vs vehicle control)” value was “Cytotoxicity is shown; also recorded: more evident”.
In the case of `[Gd]` [Gd, Gadolinium], the “cytotoxicity (cell viability <80% vs vehicle control)” value is reported as “Cytotoxicity is shown; also recorded: induce cytotoxic effects”.
For `[Te]` [Te, tellurium], the “cytotoxicity (cell viability <80% vs vehicle control)” value was “Cytotoxicity is shown; also recorded: Cytotoxic effects were most clearly observed”.

Same assay, conditions: read-out: IC80, cytotoxicity; VM7Luc4E2, ATPase test, converted from mg/L
`[Yb]` [Yb, Ytterbium] gave an IC80 of 190 µM.
With `[Tl]` [Tl, thallium] the IC80 was 44 µM.
`[Gd]` [Gd, Gadolinium] gave an IC80 of 24 µM.

Tested on: human bone osteoblasts
Design: method as in Al-Ghafari et al. [55]
Settings: ref Al-Ghafari et al. [55], read-out: IC50 (MTT assay); cited from earlier work
In the case of `[Pb]` [Pb, lead], the IC50 is given as 55 µM.
For `[Cd]` [Cd, cadmium], the IC50 is given as 32 µM.

Tested on: human bone osteoblasts
Design: method as in Al-Ghafari et al. [55]
Settings: ref Al-Ghafari et al. [55], read-out: IC50 (LDH assay); cited from earlier work
For `[Pb]` [Pb, lead], the IC50 is given as 79 µM.
In the case of `[Cd]` [Cd, cadmium], the IC50 is listed as 63 µM.

Tested on: rat NR8383 alveolar macrophages
Design: method as in Huang et al. [69]
Settings: highest tested 200 mg/L, ref Huang et al. [69]; cited from earlier work
For `[Nd+3].[Nd+3].[O-2].[O-2].[O-2]` [Nd2O3], the “concentration up to which no noticeable cytotoxicity was observed” value is listed as 6250 ng/mL.
